Results published in ChEMBL document CHEMBL6074640, “Novel Heteroaryl Fluoroalkenes as DGK Inhibitors for Treating Cancer, Particularly Metastatic Melanoma” (ACS Med Chem Lett, 2024).

Biological target: Diacylglycerol kinase alpha (Homo sapiens, UniProt P23743)
Assay: Inhibition of His-tagged recombinant human DGKalpha using DLG as substrate preincubated with substrate and ATP for 1 mins followed by compound addition and measured after 90 mins by ADP-Glo kinase assay

Sequence of Diacylglycerol kinase alpha (P23743 whole entry): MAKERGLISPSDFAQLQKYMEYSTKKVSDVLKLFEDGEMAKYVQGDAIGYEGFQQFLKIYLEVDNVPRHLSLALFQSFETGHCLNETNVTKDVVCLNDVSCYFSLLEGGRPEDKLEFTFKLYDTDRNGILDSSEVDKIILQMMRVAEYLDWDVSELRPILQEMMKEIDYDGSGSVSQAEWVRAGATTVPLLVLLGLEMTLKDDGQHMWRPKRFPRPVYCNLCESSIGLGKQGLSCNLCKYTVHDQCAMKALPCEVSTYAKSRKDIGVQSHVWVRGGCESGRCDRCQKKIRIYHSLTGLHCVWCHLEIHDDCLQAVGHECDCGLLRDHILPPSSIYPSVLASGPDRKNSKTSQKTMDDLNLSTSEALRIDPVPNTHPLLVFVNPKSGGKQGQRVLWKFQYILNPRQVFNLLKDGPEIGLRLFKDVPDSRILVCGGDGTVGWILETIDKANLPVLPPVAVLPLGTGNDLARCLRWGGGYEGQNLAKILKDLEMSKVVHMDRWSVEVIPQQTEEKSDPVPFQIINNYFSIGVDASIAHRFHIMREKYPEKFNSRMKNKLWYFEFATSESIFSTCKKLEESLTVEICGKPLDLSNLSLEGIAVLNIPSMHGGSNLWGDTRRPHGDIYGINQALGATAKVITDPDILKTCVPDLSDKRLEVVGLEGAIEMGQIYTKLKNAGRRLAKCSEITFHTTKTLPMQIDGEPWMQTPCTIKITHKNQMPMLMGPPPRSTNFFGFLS

For `F/C(=C\c1ccc(Oc2ccccc2F)c(C(F)(F)F)c1N1CCCC2(CCN(CC3CC3)CC2)C1)c1nccc(-c2cnsc2)n1`, the IC50 was no more than 20 nM.

`COc1cc(F)ccc1Oc1ccc(/C=C(\F)c2nncc(N3CCC(F)(F)C3)n2)c(N2CCC[C@@H](CN)C2)c1Cl` showed an IC50 of no more than 20 nM.

`CCN1CCC2(CC1)CN(c1c(/C=C(\F)c3nccc(-c4ccnnc4)n3)ccc(Oc3ccccc3)c1C(F)(F)F)CCO2` showed an IC50 of no more than 20 nM.

Work on `NC[C@H]1CCCN1c1c(/C=C(\F)c2nccc(-c3ccnnc3)n2)ccc(Oc2ccccc2)c1Cl` yielded an IC50 of no more than 20 nM.

`CCN1CCC2(CCCN(c3c(/C=C(\F)c4nccc(N5CC(F)(F)C5)n4)ccc(Oc4ccccc4F)c3C(F)(F)F)C2)CC1` gave an IC50 of no more than 20 nM.
